“Also recorded” adds a separate entry of the source.
Tests used:
[1] = tested on: mice lacking OX1 receptors; test: DRL 36-s schedule of reinforcement in OX1 KO mice; type: in vivo, mouse; details: for Lever Presses Mean / Reinforcers Mean: OX1 KO mice DRL-36-s, raw data; for Lever presses emitted / Reinforcers received: DRL-36-s
From the text: (§1) Rats were acclimated to housing conditions for 4 days, followed by sham dosing once daily for 3 days, prior to the experiment. For DRL experiments, male Sprague–Dawley rats weighing between 300 and 350 g at the beginning of the behavioral experiments (Holtzman, Madison, WI) were housed in pairs. For mouse DRL studies, male C57Bl/6 mice (Taconic Farms, Hudson, NY) or mice lacking either OX1 or OX2 receptors, around 8 weeks of age, were obtained from private breeding colonies at Taconic Farms (Hudson, NY). OX1 and OX2 receptor knockout mice were generated using in vitro fertilization of embryos in C57Bl/6 female mice with sperm harvested from male mice obtained from the University of Texas Southwestern Medical Center (Dallas, TX), and backcrossed for at least 10 generations. Mice and rats were housed in separate colony rooms, which were maintained at 22°C and 60% relative humidity. For rat DRL experiments, water was available for a 20-min period following the daily behavioral session. Based on recommendations from the animal care and use committee, the mouse DRL assay was developed using food deprivation rather than water deprivation. […] All experiments were conducted during the light cycle and in compliance with the Guide for the Care and Use of Laboratory Animals under protocols approved by a local animal care and use committee.
(§2) The levers in these chambers were mounted on one wall with an adjacent food magazine next to the lever in the middle of the wall. A reinforced response caused a clicker apparatus to activate and the pellet feeder to deposit one 45-mg sucrose pellet (BioServ, Frenchtown, NJ) into the food magazine. The house light, which was mounted on the ceiling, was turned on when the session began, remained on throughout the entire session, and was turned off at the end of the session. Each experimental chamber was enclosed in a melamine sound-attenuating cubicle and equipped with a white noise generator to provide masking noise.
(§3) Each mouse was initially trained under a variable time 60-s operant schedule for 5 days, followed by fixed ratio-1 ratio schedule for 5 days. After the mice had acquired lever-pressing behavior, they were trained during daily DRL 6-s sessions for ~1 week, then mice progressed through weekly ascending DRL requirements (12, 18, 24, 30 s) before moving to DRL 36-s sessions. […] Experimental sessions lasted for 45 min and were conducted 5 days/week during light hours.
(§4) Drugs were administered to the animals once or twice weekly with at least 1 week between subsequent drugs to minimize possible carryover effects. Drug treatments were administered on Tuesdays and Fridays. No treatments were administered on other test days. Wednesdays were control days. “Control” behavior was calculated as the pooled mean lever presses or reinforcers received during Wednesday sessions across all Wednesdays for the duration of each study. Performance was normalized to percent of control by dividing total responses (or reinforcers) for each drug or vehicle treatment by the mean number of responses (reinforcers) in the respective pooled control condition, multiplied by 100.
(§5) The data analyses were conducted on the raw response and reinforcement data. All behavioral data are expressed as the mean ± s.e.m. normalized to the control condition.

[2] = tested on: mice lacking OX2 receptors; test: DRL 36-s schedule of reinforcement in OX2 KO mice; type: in vivo, mouse; details: for Lever Presses Mean / Reinforcers Mean: OX2 KO mice DRL-36-s, raw data; for Lever presses emitted / Reinforcers received: mice lacking OX2 receptors, DRL-36-s
From the text: as §1, §2, §3, §4, §5

Sprague–Dawley rats = test: DRL 72-s schedule of reinforcement in rats; type: in vivo, rat; details: for Lever Presses Mean / Reinforcers Mean: HSD rats DRL-72-s, raw data
From the text: Each chamber was enclosed in a melamine sound-attenuating cubicle. A white noise generator provided masking noise. The interior of each chamber consisted of three levers mounted on one wall with a house light mounted on the opposite wall. The house light was turned on at initiation of each test session and was turned off at the termination of each session. A water access port was situated next to the lever in the middle of the wall, wherein a reinforced response caused a clicker apparatus to sound paired with a dipper (0.02-ml cup) to be lifted from a water trough to an opening in the floor of the access port for 4 s.
Rats were initially trained under an alternative fixed ratio 1 water reinforcement schedule with a fixed 1-min time schedule for automatic reinforcement. Thus, each response was reinforced, with water also provided every minute in the absence of a response. […] Following acquisition of lever-pressing behavior, rats were trained daily on DRL 18-s sessions for ~2 weeks, following which they were advanced to DRL 72-s sessions. Responding on these sessions became stable after ~8 weeks. Experimental test sessions lasted for 1 h and were conducted 5 days/week during light hours.
as §4, §5

C57Bl/6 mice = test: DRL 36-s schedule of reinforcement in wild-type mice; type: in vivo, mouse; details: for Lever Presses Mean / Reinforcers Mean: WT mice DRL-36-s, raw data
From the text: as §2, §3, §4, §5

[3] = tested on: c-Fos protein in rat medial prefrontal cortex; test: Restraint-stress-induced c-Fos activation (ELISA); details: 3 mg/kg IP 30 min before 20 min restraint, 3 mg/kg
Protocol: Thirty min later, rats were restrained in a rigid plastic flat-bottom restraint tube (Braintree Scientific, Inc.; Braintree, MA, USA) for 20 min. After the 20 min stress period, rats were moved to a new cage and housed individually. Rats were sacrificed 2 h after stress onset. […] Immediately after sacrifice, brains were removed, the medial prefrontal cortex (mPFC), a brain area implicated in the pathophysiology of depression, was dissected from both hemispheres and frozen in 1.5 ml centrifuge tubes in dry ice, and stored at −80°C for later analysis.
Frozen mPFC tissues were removed from the −80°C freezer and placed on ice. Tissue was homogenized with a dounce homogenizer. The nuclear extract was prepared from the homogenized samples as per manufacturer's instructions using a CHEMICON ®Nuclear Extraction Kit (Millipore; Billerica, MA, USA). Protein concentrations were determined in the nuclear extracts using the Pierce BCA Protein Assay kit (Pierce Biotechnology, Inc., Rockford, IL, USA). Nuclear fractions were then assayed for Fos protein levels using the Pierce c-Fos Transcription Factor Kit (Pierce Biotechnology, Inc., Rockford, IL, USA), according to the manufacturer's instructions. […] Data were analyzed and plotted using GraphPad Prism (GraphPad Software, Inc.; La Jolla, CA, USA).

[4] = mice lacking OX1 receptors, 20 mg/kg
[5] = mice lacking OX1 receptors, 15 mg/kg
[6] = 10 mg/kg, positive control in the SB334867 experiment
[7] = rats DRL-72-s, 10 mg/kg, normalized to control days
[8] = rats DRL-72-s, 10 mg/kg, positive control in the SB334867 experiment

## Cc1nc2ccc(NC(=O)Nc3ccnc4cccnc34)cc2o1 [SB334867]
[1]; dose 1 mg/kg
  Lever Presses Mean: 209.75
  Reinforcers Mean: 15.00
[1]; dose 3 mg/kg
  Lever Presses Mean: 169.00
  Reinforcers Mean: 23.88
[1]; dose 10 mg/kg
  Lever Presses Mean: 163.63
  Reinforcers Mean: 22.88
[1]; dose 20 mg/kg
  Lever Presses Mean: 141.88
  Reinforcers Mean: 28.75
[1]; dose 40 mg/kg
  Lever Presses Mean: 68.13
  Reinforcers Mean: 21.38
[1]; [4]
  Lever presses emitted: 75 % of control
  Reinforcers received: 166 % of control
[1]; mice lacking OX1 receptors, 40 mg/kg
  Lever presses emitted: 35 % of control
[1]; mice lacking OX1 receptors, 40 mg/kg, not significant
  Reinforcers received: 123%
[2]; dose 1 mg/kg
  Lever Presses Mean: 175.50
  Reinforcers Mean: 19.50
[2]; dose 3 mg/kg
  Lever Presses Mean: 155.75
  Reinforcers Mean: 21.50
[2]; dose 10 mg/kg
  Lever Presses Mean: 167.75
  Reinforcers Mean: 22.75
[2]; dose 20 mg/kg
  Lever Presses Mean: 149.50
  Reinforcers Mean: 26.25
[2]; dose 40 mg/kg
  Lever Presses Mean: 27.38
  Reinforcers Mean: 17.50
[2]; 40 mg/kg
  Lever presses emitted: less than 20 % of control
  Reinforcers received: 75 % of control
Sprague–Dawley rats; dose 3 mg/kg
  Lever Presses Mean: 76.57
  Reinforcers Mean: 11.00
Sprague–Dawley rats; dose 10 mg/kg
  Lever Presses Mean: 70.71
  Reinforcers Mean: 12.43
Sprague–Dawley rats; dose 30 mg/kg IP
  Lever Presses Mean: 71.86
  Reinforcers Mean: 11.00
Sprague–Dawley rats; rats DRL-72-s, doses up to 30 mg/kg
  Change in reinforcers received or total lever presses made, in words: did not produce a significant change
C57Bl/6 mice; C57Bl/6 mice DRL-36-s, up to 40 mg/kg
  Effect on lever presses emitted or reinforcers received, in words: did not significantly affect
C57Bl/6 mice; dose 3 mg/kg
  Lever Presses Mean: 162.86
  Reinforcers Mean: 17.14
C57Bl/6 mice; dose 10 mg/kg
  Lever Presses Mean: 157.57
  Reinforcers Mean: 16.14
C57Bl/6 mice; dose 20 mg/kg
  Lever Presses Mean: 148.57
  Reinforcers Mean: 18.43
C57Bl/6 mice; dose 40 mg/kg
  Lever Presses Mean: 87.67
  Reinforcers Mean: 22.33

## Cc1nnc2n1-c1ccc(Cl)cc1C(c1ccccc1)=NC2 [alprazolam]
[3]
  Effect on restraint stress-induced increase in c-fos expression in prefrontal cortex: attenuated; also recorded: blocked

## CN(C)CCCN1c2ccccc2CCc2ccccc21 [imipramine]
[1]; dose 3 mg/kg
  Lever Presses Mean: 177.63
[1]; dose 10 mg/kg
  Lever Presses Mean: 174.13
  Reinforcers Mean: 24.25
[1]; dose 15 mg/kg
  Lever Presses Mean: 128.50
  Reinforcers Mean: 31.13
[1]; [5]
  Lever presses emitted: 63 % of control
  Reinforcers received: 206 % of control
[1]; mice lacking OX1 receptors, doses lower than 15 mg/kg
  Effect on lever pressing, in words: did not affect lever pressing
[2]; dose 10 mg/kg
  Lever Presses Mean: 165.25
  Reinforcers Mean: 27.88
[2]; dose 15 mg/kg
  Lever Presses Mean: 116.88
  Reinforcers Mean: 33.00
[2]; 15 mg/kg
  Lever presses emitted: 70 % of control
  Reinforcers received: 140 % of control
Sprague–Dawley rats; 10 mg/kg, positive control in the LSN2424100 experiment
  Lever Presses Mean: 55.71
Sprague–Dawley rats; [6]
  Lever Presses Mean: 49.00
  Reinforcers Mean: 18.57
Sprague–Dawley rats; dose 1 mg/kg
  Lever Presses Mean: 77.50
  Reinforcers Mean: 9.92
Sprague–Dawley rats; dose 3 mg/kg
  Lever Presses Mean: 68.42
  Reinforcers Mean: 15.17
Sprague–Dawley rats; dose 10 mg/kg
  Lever Presses Mean: 46.17
  Reinforcers Mean: 20.33
Sprague–Dawley rats; [7]
  Reinforcers received: 210 % of control
  Total lever presses emitted: 51 % of control
Sprague–Dawley rats; [8]
  Lever presses: 64 % of control
  Reinforcers received: 160 % of control
Sprague–Dawley rats; rats DRL-72-s, doses of 1 and 3 mg/kg
  Effect on DRL behavior (lever presses, reinforcers), in words: no significant effect on behavior
